Results: patent publication US9944600B2, “Piperidine derivatives for GPR119 agonist” (CHONG KUN DANG PHARMACEUTICAL CORP., priority 2012, dated 2018)

Biological target: T1, human GPR119 receptor (Homo sapiens, UniProt Q8TDV5)
T1 construct: host or cells: GeneBLAzer T-Rex GPR 119 CHO-K1 DA cells (CHO-K1)
T1 sequence (Q8TDV5 1-335): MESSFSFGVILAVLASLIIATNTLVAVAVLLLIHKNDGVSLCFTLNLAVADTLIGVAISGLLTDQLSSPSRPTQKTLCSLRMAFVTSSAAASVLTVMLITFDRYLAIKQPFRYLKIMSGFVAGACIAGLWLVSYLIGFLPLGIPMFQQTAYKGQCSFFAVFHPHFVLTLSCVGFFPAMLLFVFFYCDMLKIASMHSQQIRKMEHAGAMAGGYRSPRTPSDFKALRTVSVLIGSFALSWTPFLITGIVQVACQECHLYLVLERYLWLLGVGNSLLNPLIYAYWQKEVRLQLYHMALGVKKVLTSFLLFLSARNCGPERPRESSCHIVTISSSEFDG
Assay: Activity test for human GPR119 receptor (GeneBLAzer T-Rex GPR 119 CHO-K1 DA cells, fluorescence reporter)
Format: cell-based
Conditions: human GPR119 CHO-K1 reporter cells, 5 hours treatment, ratio to vehicle control well, read-out: % Activation; for activity at 0.1 µM: test compound conc. 0.1 μM; for activity at 1 µM: test compound conc. 1 μM; for activity at 10 µM: test compound conc. 10 μM
Procedure: As a human GPR119 receptor expression cell for this test, the cell line “GeneBLAzer™ T-Rex GPR 119 CHO-K1 DA cells” that is commercially available from Invitrogen, was used. The cell was incubated in the DMEM media containing 1% dialyzed fetal bovine serum etc. The cell incubator was kept at constant temperature and constant humidity of 37° C., 5% CO2.
The human GPR119 receptor expressing cell was used to this test. Each of test compounds was added to be final concentrations of 0.1, 1, 10 μM in 96 well and tested in duplicate. A fixed amount of cell was added to each well of 96 well separately, and then treated with the test compound for 5 hours. After treatment of color development agent for 2 hours, the fluorescence value was determined with plate reader. To the luminous wavelength of control well, which was not treated with the agonist sample, but in which only a vehicle (i.e., cell) was contained, the ratio of the luminous wavelength of test well, which was treated with the agonist sample, was calculated, and then converted to obtain % value.
All the results were expressed as mean±SD, and each test groups and the control group were compared using student's t-test to adjudge the effects of each test groups.

| SMILES | activity at 0.1 µM [%] | activity at 1 µM [%] | activity at 10 µM [%] |
| --- | --- | --- | --- |
| CS(=O)(=O)c1ccc(-c2ccc(OCC3CCN(CC4(C(F)(F)F)CC4)CC3)cc2)cc1 [Compound 500, 4-((4′-(methylsulfonyl)biphenyl-4-yloxy)methyl)-1-((1-(trifluoromethyl)cyclopropyl)methyl)piperidine] | 214 | 298 | 310 |
| CC(C)(F)CN1CCC(COc2ccc(-c3ccc(C(=O)N4CCOCC4)cc3)cc2)CC1 [Compound 517, (4′-((1-(2-fluoro-2-methylpropyl)piperidin-4-yl)methoxy)biphenyl-4-yl)(morpholino)methanone] | 192 | 244 | 291 |
| CS(=O)(=O)c1ccc(-c2ccc(OCC3CCN(CC4(C(F)(F)F)CCC4)CC3)cc2)cc1 [Compound 542, 4-((4′-(methylsulfonyl)biphenyl-4-yloxy)methyl)-1-((1-(trifluoromethyl)cyclobutyl)methyl)piperidine] | 256 | 347 | 376 |
| CN(CCO)C(=O)c1ccc(-c2ccc(OCC3CCN(CC(C)(C)F)CC3)cc2)cc1 [Compound 551, 4′-((1-(2-fluoro-2-methylpropyl)piperidin-4-yl)methoxy)-N-(2-hydroxyethyl)-N-methylbiphenyl-4-carboxamide] | 135 | 232 | 288 |
| CC(C)(F)CN1CCC(COc2ccc(-c3ccc(C(=O)N4CC[C@@H](O)C4)cc3)cc2)CC1 [Compound 553, (R)-(4′-((1-(2-fluoro-2-methylpropyl)piperidin-4-yl)methoxy)biphenyl-4-yl)(3-hydroxypyrrolidine-1-yl)methanone] | 149 | 204 | 253 |
| CC(C)(F)CN1CCC(COc2ccc(-c3ccc(C(=O)N4CC[C@H](O)C4)cc3)cc2)CC1 [Compound 554, (S)-(4′-((1-(2-fluoro-2-methylpropyl)piperidin-4-yl)methoxy)biphenyl-4-yl)(3-hydroxypyrrolidine-1-yl)methanone] | 141 | 219 | 279 |
| CC(C)(F)CN1CCC(COc2ccc(-c3ccc(C(=O)N4CCC[C@@H]4CO)cc3)cc2)CC1 [Compound 555, (R)-(4′-((1-(2-fluoro-2-methylpropyl)piperidin-4-yl)methoxy)biphenyl-4-yl)(2-(hydroxymethyl)pyrrolidine-1-yl)methanone] | 190 | 269 | 272 |
| CC(=O)N1CCN(C(=O)c2ccc(-c3ccc(OCC4CCN(CC(C)(C)F)CC4)cc3)cc2)CC1 [Compound 628, 1-(4-(4′-((1-(2-fluoro-2-methylpropyl)piperidin-4-yl)methoxy)biphenylcarbonyl)piperazin-1-yl)ethanone] | 138 | 210 | 257 |
| CC(C)(F)CN1CCC(COc2ccc(-c3ccc(C(=O)N4CCC(F)(F)C4)cc3)cc2)CC1 [Compound 629, (3,3-difluoropyrrolidine-1-yl)(4′-((1-(2-fluoro-2-methylpropyl)piperidin-4-yl)methoxy)biphenyl-4-yl)methanone] | 199 | 229 | 269 |
| CC(C)(F)CN1CCC(COc2ccc(-c3ccc(C(=O)N4CCC[C@@H]4CO)c(F)c3)cc2)CC1 [Compound 641, (R)-(3-fluoro-4′-((1-(2-fluoro-2-methylpropyl)piperidin-4-yl)methoxy)biphenyl-4-yl)(2-(hydroxymethyl)pyrrolidine-1-yl)methanone] | 167 | 220 | 246 |
| CC(C)(F)CN1CCC(COc2ccc(-c3ccc(C(=O)N4CCC[C@H]4C(N)=O)c(F)c3)cc2)CC1 [Compound 644, (S)-1-(3-fluoro-4′-((1-(2-fluoro-2-methylpropyl)piperidin-4-yl)methoxy)biphenylcarbonyl)pyrrolidine-2-carboxamide] | 213 | 295 | 294 |
| CCC(F)(CC)CN1CCC(COc2ccc(-c3ccc(C(=O)N4CCC[C@H]4C(N)=O)c(F)c3)cc2C#N)CC1 [Compound 1000, (S)-1-(3′-cyano-4′-((1-(2-ethyl-2-fluorobutyl)piperidin-4-yl)methoxy)-3-fluorobiphenylcarbonyl)pyrrolidine-2-carboxamide] | 311 | 367 | 374 |

The remaining lines, values ahead:

| activity at 0.1 µM [%] | activity at 1 µM [%] | activity at 10 µM [%] | SMILES |
| --- | --- | --- | --- |
| 227 | 288 | 297 | O=C(c1ccc(-c2ccc(OCC3CCN(CC4(C(F)(F)F)CC4)CC3)nc2)cc1)N1CCC(CO)CC1 [Compound 587, (4-(hydroxymethyl)piperidin-1-yl)(4-(6-((1-((1-(trifluoromethyl)cyclopropyl)methyl)piperidin-4-yl)methoxy)pyridine-3-yl)phenyl)methanone] |
| 265 | 305 | 239 | NC(=O)[C@@H]1CCCN1C(=O)c1ccc(-c2ccc(OCC3CCN(CC4(C(F)(F)F)CCC4)CC3)cc2)cc1 [Compound 635, (S)-1-(4′-((1-((1-(trifluoromethyl)cyclobutyl)methyl)piperidin-4-yl)methoxy)biphenylcarbonyl)pyrrolidine-2-carboxamide] |
| 160 | 228 | 262 | O=C(c1ccc(-c2ccc(OCC3CCN(CC4(C(F)(F)F)CCC4)CC3)nc2)cc1F)N1CC[C@H](O)C1 [Compound 720, (8)-(2-fluoro-4-(6-((1-((1-(trifluoromethyl)cyclobutyl)methyl)piperidin-4-yl)methoxy)pyridine-3-yl)phenyl)(3-hydroxypyrrolidine-1-yl)methanone] |
| 198 | 269 | 261 | NC(=O)[C@@H]1CCCN1C(=O)c1ccc(-c2ccc(OCC3CCN(CC4(C(F)(F)F)CCC4)CC3)nc2)cc1F [Compound 722, (S)-1-(2-fluoro-4-(6-((1-((1-(trifluoromethyl)cyclobutyl)methyl)piperidin-4-yl)methoxy)pyridine-3-yl)benzoyl)pyrrolidine-2-carboxamide] |
| 256 | 296 | 252 | O=C(c1ccc(-c2ccc(OCC3CCN(CC4(C(F)(F)F)CCC4)CC3)cc2)cc1)N1CCC[C@@H](O)C1 [Compound 794, (R)-(3-hydroxypiperidin-1-yl)(4′-((1-((1-(trifluoromethyl)cyclobutyl)methyl)piperidin-4-yl)methoxy)biphenyl-4-yl)methanone] |
| 257 | 313 | 303 | CC(C)(CN1CCC(COc2ccc(-c3ccc(C(=O)N4CCC[C@@H](O)C4)cc3)cn2)CC1)C(F)(F)F [Compound 829, (R)-(3-hydroxypiperidin-1-yl)(4-(6-((1-(3,3,3-trifluoro-2,2-dimethylpropyl)piperidin-4-yl)methoxy)pyridin-3-yl)phenyl)methanone] |
| 251 | 296 | 306 | NC(=O)[C@@H]1CCCN1C(=O)c1ccc(-c2ccc(OCC3CCN(CC4(C(F)(F)F)CCC4)CC3)c(F)c2)cc1 [Compound 837, (S)-1-(3′-fluoro-4′-((1-((1-(trifluoromethyl)cyclobutyl)methyl)piperidin-4-yl)methoxy)biphenylcarbonyl)pyrrolidine-2-carboxamide] |
| 164 | 241 | 246 | NC(=O)[C@H]1CCCCN1C(=O)c1ccc(-c2ccc(OCC3CCN(CC4(C(F)(F)F)CCC4)CC3)c(F)c2)cc1 [Compound 886, (R)-1-(3′-fluoro-4′-((1-((1-(trifluoromethyl)cyclobutyl)methyl)piperidin-4-yl)methoxy)biphenylcarbonyl)piperidin-2-carboxamide] |
| 235 | 314 | 340 | NC(=O)[C@@H]1CCCN1C(=O)c1ccc(-c2cnc(OCC3CCN(CC4(C(F)(F)F)CCC4)CC3)cn2)cc1 [Compound 1009, (S)-1-(4-(5-((1-((1-(trifluoromethyl)cyclobutyl)metb.yl)piperidin-4-yl)methoxy)pyrazine-2-yl)benzoyl)pyrrolidine-2-carboxamide] |
